Read-outs that look alike come from different tables or passages of the source.
Legend:
[1] = DTG steady-state plasma pharmacokinetics, interaction with EFV; assay type: in vivo, human; details: for Cmax / AUC / concentration at 24 h / Tmax: both sexes, human, oral, fasting; for AUC: read-out: AUC(0–τ); for concentration at 24 h: read-out: C τ; for Tmax: n=12, median (range)
Protocol: There was no washout between treatment periods. All doses were administered in the fasting state. […]

[2] = Safety evaluations, interaction study with EFV; assay type: in vivo, human; details: healthy subjects n=12
Protocol: (§1) In both studies, safety evaluations [adverse event (AE) reporting, clinical chemistry laboratory tests, urinalysis, vital signs and electrocardiogram] were performed throughout the study. Given the known hepatotoxicity profile of TPV/r, more frequent monitoring of liver chemistries was performed in the TPV/r study, and conservative stopping criteria were employed such that any subject reaching a grade 2 increase in alanine aminotransferase (ALT) or aspartate aminotransferase (AST) was discontinued from the trial. Both trials were conducted as inpatient studies with subjects housed in the unit for the duration of the study. The studies were conducted in accordance with the principles of the Declaration of Helsinki. A written informed consent was obtained from all subjects, and both protocols were approved by the institutional review board of the study sites.

[3] = Safety evaluations, interaction study with TPV/r; assay type: in vivo, human; details: healthy subjects n=18
Protocol: as §1

UGT2B7 = system: UGT2B7; parameters: method as in PMID 23132334; details: in vitro; cited from earlier work
OATP1B3 = system: OATP1B3; parameters: method as in PMID 23132334; details: in vitro; cited from earlier work
CYP1A2 = system: CYP1A2; parameters: method as in PMID 23132334; details: in vitro; cited from earlier work
CYP2B6 = system: CYP2B6; parameters: method as in PMID 23132334; details: in vitro; cited from earlier work
HIV = system: HIV; parameters: method as in earlier work; details: SAILING, cited from earlier work
[4] = parameters: method as in PMID 23075918; details: DTG 50 mg twice daily with rifampin; cited from earlier work
[5] = plasma, DTG 50 mg + EFV 600 mg q24h for 14 days, n=12, geometric mean (CV%)
[6] = plasma, DTG 50 mg q24h alone for 5 days, n=12, geometric mean (CV%)
[7] = co-administration of EFV 600 mg q24h and DTG 50 mg q24h

## C[C@@H]1CCO[C@H]2Cn3cc(C(=O)NCc4ccc(F)cc4F)c(=O)c(O)c3C(=O)N12 [DTG, Dolutegravir]
[1]; DTG+EFV vs DTG alone, n=12
  GLS mean ratio (90 % CI) of AUC(0–τ): 0.431 (0.346, 0.536)
  GLS mean ratio (90 % CI) of C max: 0.608 (0.506, 0.730)
  GLS mean ratio (90 % CI) of C τ: 0.245 (0.179, 0.336)
[1]; DTG 50 mg q24h alone for 5 days, healthy subjects n=12, plasma, geometric mean (CV%)
  Cmax: 3080 ng/mL
[1]; [5]
  Cmax: 1870 ng/mL
  AUC: 18200 ng·h/mL
  concentration at 24 h: 220 ng/mL
[1]; plasma, DTG 50 mg + EFV 600 mg q24h for 14 days
  Tmax: 1 h
[1]; [6]
  AUC: 42300 ng·h/mL
  concentration at 24 h: 910 ng/mL
[1]; plasma, DTG 50 mg q24h alone for 5 days
  Tmax: 2 h
[1]; [7]
  decrease in plasma DTG AUC(0–τ): 57%
  decrease in plasma DTG C max: 39%
  decrease in plasma DTG C τ: 75%
[2]
  subjects reporting at least one AE: 17%
[2]; repeat doses
  tolerability: generally well tolerated
[3]
  subjects reporting headache: 11%
UGT2B7
  direct inhibition of UGT2B7: minimal or no direct inhibition
OATP1B3
  direct inhibition of OATP1B3: minimal or no direct inhibition
CYP1A2
  induction of CYP1A2: not an inducer
CYP2B6
  induction of CYP2B6: not an inducer
HIV; DTG 50 mg once daily with EFV- or TPV/r-containing background regimens, n=16
  week 48 Snapshot response rate: 56.3%
HIV; subjects not on these inducers or inhibitors (atazanavir and atazanavir/ritonavir)
  week 48 Snapshot response rate: 74.4%
[4]
  C τ higher than with DTG 50 mg once daily alone: 22%
